Reference: patent US20190298708A1, “METHODS OF TREATING SUBJECTS WITH AN ELEVATED NEUROFILAMENT LIGHT CHAIN LEVEL” (Coherus Biosciences, Inc., priority 2018, published 2019)

Experiments:
[1] = tested on: neurofilament light chain (NFL); assay: Blood NFL measurement by Simoa assay in RRMS patients given CHS-131; assay type: in vivo, human
Description: Capture monoclonal antibody (mAB) 47: 3 is buffer exchanged and diluted to 0.3 mg/mL 4×10^6 paramagnetic beads (Quanterix Corporation) are buffer exchanged and activated using 0.5 mg/mL 1-ethyl-3-(3-dimetylaminopropyl) carbodiimide (Quanterix), followed by a 30-minute incubation at room temperature (HulaMixer, Thermo Fischer Scientific). The diluted capture mAB 47:3 is conjugated with the washed and activated paramagnetic beads for a 2-hour incubation at room temperature on a mixer. After the incubation, the beads are washed three times using a magnetic separator and blocked. Next, the conjugated beads are suspended and stored at 4° C.
The Simoa assay is run on a Simoa HD-1 instrument (Quanterix) using a two-step Assay Neat 20 protocol. Briefly, 100 μL of calibrator/sample in Tris-buffered saline (TBS), 0.1% Tween 20, 1% milk powder, 400 μg/mL Heteroblock (Omega Biologicals), 25 μL conjugated beads in TBS, 0.1% Tween 20, 1% milk powder, 300 μg/mL Heteroblock, and 20 μL of mAB 2:1 (0.1 μg/mL in TBS, 0.1% Tween 20, 1% milk powder, 300 μg/mL Heteroblock) are incubated for 35 minutes 15 seconds (47 cadences with 1 cadence is 45 seconds). Next, the mixture is washed. Then, 100 μL of streptavidin-conjugated […] (150 pM; Quanterix) is added, followed by a 5 minutes 15 second (7-cadence) incubation and wash. The mixture will then be placed on a Simoa HD-1 instrument. Prior to reading, 25 μL Resorufin (3-D-galactopyranoside (Quanterix) is added. The calibrator curve is constructed using the standard from the NFL ELISA (NF-light, UmanDiagnostics). Samples and calibrators are measured in duplicates.
(§1) Serum Nfl levels were investigated in longitudinal blood samples. The aims of this study include: • to explore the predictive value of blood NFL concentrations in patients treated with CHS-131 (also known as INT-131), • to determine the kinetics of the response to CHS-131, • to analyze NFL as a marker for the effectiveness of CHS-131 in relapsing-remitting multiple sclerosis (RRMS) patients, • to assess the value of NFL concentrations in comparing the effectiveness of CHS-131 with the effectiveness of placebo, • to correlate blood NFL with radiological and clinical outcome parameters (such as magnetic resonance imaging (MRI) (Gd+ lesion counts, T2 lesion volume), annualized relapse rate (ARR), brain atrophy and correlation with expanded disability status scale (EDSS), • to examine the prognostic value of NFL concentrations by stratification of patients related to disease activity, • to determine the risk of relapse or risk of disease progression, and • to evaluate NFL concentrations as a retreatment predictive biomarker.
All patients receiving CHS-131 were orally adminisntered 1 mg or 3 mg CHS-131 daily. All control patients were orally administered a placebo tablet once a day. All patients enrolled in the study were treatment-naïve RRMS for <3 years.
The human plasma samples used for the analysis were coded and are not individually identifiable because neither the investigator nor any other individuals associated with the investigation or the sponsor can link the specimen to the subject from whom the specimen was collected, either directly or indirectly through coding systems.
The concentration of NFL […] in subject administered placebo, 1 mg daily CHS-131, and 3 mg daily CHS-131 are reported in Tables 1, 2, and 3, respectively.

[2] = tested on: relapsing-remitting multiple sclerosis (RRMS) patients; assay: Correlation of NFL concentration with CE and T2 lesions and EDSS; assay type: in vivo, human; settings: after six months of treatment, all groups combined
Excerpt: as §1, with “biomarker. The correlation between NFL concentration and CE and T2 lesions was evaluated after six months of treatment with CHS-131 (all groups combined). […] The correlation between NFL concentration and EDSS was evaluated after six months of treatment with CHS-131 (all groups combined). […] Increased EDSS indicates increased disability, therefore lowering EDSS is considered effective treatment of multiple sclerosis.” for “biomarker.”

[3] = 1 mg daily CHS-131 oral, Wk0, RRMS patients
[4] = 1 mg daily CHS-131 oral, Wk12, RRMS patients
[5] = 1 mg daily CHS-131 oral, Wk24, RRMS patients
[6] = 1 mg daily CHS-131 oral, Wk48, RRMS patients
[7] = 3 mg daily CHS-131 oral, Wk0, RRMS patients
[8] = 3 mg daily CHS-131 oral, Wk12, RRMS patients
[9] = 3 mg daily CHS-131 oral, Wk24, RRMS patients
[10] = 3 mg daily CHS-131 oral, Wk48, RRMS patients

For `O=S(=O)(Nc1cc(Cl)c(Oc2cnc3ccccc3c2)c(Cl)c1)c1ccc(Cl)cc1Cl` [CHS-131], the concentration of NFL, Max [1, 3] was 29 pg/mL, the concentration of NFL, Mean [1, 3] was 20.8 pg/mL and the concentration of NFL, Median [1, 3] was 19.4 pg/mL. The concentration of NFL, Min [1, 3] was 13.3 pg/mL, the concentration of NFL, Q1 [1, 3] was 19.3 pg/mL and the concentration of NFL, Q3 [1, 3] was 22.8 pg/mL. For the same compound, the concentration of NFL, Max [1, 4] was 160 pg/mL, the concentration of NFL, Mean [1, 4] was 27.6 pg/mL and the concentration of NFL, Median [1, 4] was 17.9 pg/mL. It also gave a concentration of NFL, Min [1, 4] of 2.1 pg/mL, a concentration of NFL, Q1 [1, 4] of 11.7 pg/mL and a concentration of NFL, Q3 [1, 4] of 32.2 pg/mL. It also gave a concentration of NFL, Max [1, 5] of 65.5 pg/mL, a concentration of NFL, Mean [1, 5] of 22.3 pg/mL and a concentration of NFL, Median [1, 5] of 17 pg/mL. It also gave a concentration of NFL, Min [1, 5] of 3.2 pg/mL, a concentration of NFL, Q1 [1, 5] of 11.8 pg/mL and a concentration of NFL, Q3 [1, 5] of 31.5 pg/mL. It also gave a concentration of NFL, Max [1, 6] of 340 pg/mL, a concentration of NFL, Mean [1, 6] of 27.6 pg/mL and a concentration of NFL, Median [1, 6] of 17.5 pg/mL. The concentration of NFL, Min [1, 6] was 2.6 pg/mL, the concentration of NFL, Q1 [1, 6] was 10.1 pg/mL and the concentration of NFL, Q3 [1, 6] was 24.2 pg/mL. The concentration of NFL, Max [1, 7] was 73.7 pg/mL, the concentration of NFL, Mean [1, 7] was 29.9 pg/mL and the concentration of NFL, Median [1, 7] was 19.6 pg/mL. The concentration of NFL, Min [1, 7] was 11.7 pg/mL, the concentration of NFL, Q1 [1, 7] was 11.8 pg/mL and the concentration of NFL, Q3 [1, 7] was 48.1 pg/mL. For the same compound, the concentration of NFL, Max [1, 8] was 117 pg/mL, the concentration of NFL, Mean [1, 8] was 23.2 pg/mL and the concentration of NFL, Median [1, 8] was 16.4 pg/mL. The concentration of NFL, Min [1, 8] was 4.9 pg/mL, the concentration of NFL, Q1 [1, 8] was 12.2 pg/mL and the concentration of NFL, Q3 [1, 8] was 28.1 pg/mL. It also gave a concentration of NFL, Max [1, 9] of 74.9 pg/mL, a concentration of NFL, Mean [1, 9] of 20.4 pg/mL and a concentration of NFL, Median [1, 9] of 15.9 pg/mL. For the same compound, the concentration of NFL, Min [1, 9] was 5.8 pg/mL, the concentration of NFL, Q1 [1, 9] was 10.4 pg/mL and the concentration of NFL, Q3 [1, 9] was 26.6 pg/mL. The concentration of NFL, Max [1, 10] was 119 pg/mL, the concentration of NFL, Mean [1, 10] was 19.3 pg/mL and the concentration of NFL, Median [1, 10] was 14.3 pg/mL. It also gave a concentration of NFL, Min [1, 10] of 4.9 pg/mL, a concentration of NFL, Q1 [1, 10] of 9 pg/mL and a concentration of NFL, Q3 [1, 10] of 20.4 pg/mL. The “new CE lesions in subjects with lower average levels of NFL” value ([2]; FIG. 1) was “fewer new CE lesions”, the “new or enlarging T2 lesions in subjects with lower average levels of NFL” value ([2]; FIG. 2) was “fewer new or enlarging T2 lesions” and the “EDSS in subjects with lower levels of NFL (trend)” value ([2]; FIG. 3) was “lower EDSS”.
